Test results published in patent US7807707B2, “Hair and/or scalp care compositions incorporating amino-oxo-indole-ylidene compounds” (priority 2005, dated 2010).

Experiments:
[1] = target: T1, Cannabinoid Receptor 1 (CB1R) (Homo sapiens, UniProt P21554); assay: CB1R radioligand assay on membranes from HEK293 cells over-expressing human recombinant CB1; format: binding; details: human recombinant CB1, [3H]CP-55,490 radioligand, n=3
T1 construct: purchased Perkin-Elmer; host or cells: HEK293
Protocol: (§1) An amino-oxo-indole-ylidene compound of formula (I) was evaluated for its ability to activate Cannabinoid Receptor 1 (CB1R) and Cannabinoid Receptor 2 (CB2R). Its C log P value were also measured.
CB1R experiments were performed using membranes from HEK293 cells over-expressing human recombinant CB1, as described by the manufacturer (Perkin-Elmer) and using [3H]CP-55,490 as the radioligand.
(§2) Data of the active compound is expressed in Ki (mM) and are means±SEM of n=3 determinations.
(§3) The value stated is an EC50 value. This is defined as the molar concentration of an agonist, which produces 50% of the maximum possible response for that agonist. The values documented are in micromolar units.

[2] = target: T2, Cannabinoid Receptor 2 (CB2R) (Homo sapiens, UniProt P34972); assay: CB2R radioligand assay on membranes from HEK293 cells over-expressing human recombinant CB2; format: binding
T2 construct: purchased Perkin-Elmer; host or cells: HEK293
T2 sequence (P34972 whole entry): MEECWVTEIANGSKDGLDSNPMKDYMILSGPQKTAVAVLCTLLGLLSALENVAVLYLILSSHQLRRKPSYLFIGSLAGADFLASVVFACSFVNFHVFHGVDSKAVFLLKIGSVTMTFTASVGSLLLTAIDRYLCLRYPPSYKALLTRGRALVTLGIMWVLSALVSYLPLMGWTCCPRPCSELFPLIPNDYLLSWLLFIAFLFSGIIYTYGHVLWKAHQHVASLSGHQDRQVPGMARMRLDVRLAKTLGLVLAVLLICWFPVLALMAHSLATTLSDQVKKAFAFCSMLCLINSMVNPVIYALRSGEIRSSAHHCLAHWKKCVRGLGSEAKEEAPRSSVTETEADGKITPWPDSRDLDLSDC
Protocol: as §1
CB2R experiments were performed using membranes from HEK293 cells over-expressing human recombinant CB2, as described by the manufacturer (Perkin-Elmer), and using [3H]CP-55,495 as the radioligand.
as §2, §3

T1 sequence (P21554 whole entry): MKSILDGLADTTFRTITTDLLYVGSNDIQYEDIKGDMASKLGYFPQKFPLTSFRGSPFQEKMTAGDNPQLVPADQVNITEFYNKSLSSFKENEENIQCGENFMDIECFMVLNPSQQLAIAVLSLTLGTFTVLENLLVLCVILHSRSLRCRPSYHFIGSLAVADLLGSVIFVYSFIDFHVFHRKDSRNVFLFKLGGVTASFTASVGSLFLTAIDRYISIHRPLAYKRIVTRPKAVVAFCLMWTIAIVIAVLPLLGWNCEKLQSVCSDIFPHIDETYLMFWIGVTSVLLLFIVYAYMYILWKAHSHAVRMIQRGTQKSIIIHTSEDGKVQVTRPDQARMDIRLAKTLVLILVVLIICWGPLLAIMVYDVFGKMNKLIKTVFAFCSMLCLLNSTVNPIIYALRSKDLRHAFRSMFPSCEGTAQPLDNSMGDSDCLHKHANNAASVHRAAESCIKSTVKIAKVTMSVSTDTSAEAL

O=C(CNc1cccc2ccccc12)N/N=C1\C(=O)N(CCc2ccccc2)c2ccccc21 [Example 1, (naphthalen-1-ylamino)-acetic acid (2-oxo-1-phenethyl-1,2-dihydro-indol-3-ylidene)-hydrazide]
EC50 [1]: > 25 µM | EC50 [2]: 21.1 µM
